According to patent US12606541B2, “PPARg modulators and methods of use” (Eisai R&D Management Co., Ltd., priority 2020, dated 2026):

How the values were obtained:
[1] = molecular target: T1, His6-TEV-PPARγ-(234-505) (Homo sapiens, UniProt P37231); assay: TR-FRET Assay to Measure Co-R Peptide Recruitment to PPARγ; assay type: biochemical; conditions: Co-R peptide (SMRT-ID2) recruitment; top final concentration 20 μM; read-out: TR-FRET i-Ag; AC50
T1 construct: The His6-TEV-PPARγ-(234-505) protein for assay was expressed and purified; TEV cleavage site (N); made in house
T1 sequence (P37231 234-505): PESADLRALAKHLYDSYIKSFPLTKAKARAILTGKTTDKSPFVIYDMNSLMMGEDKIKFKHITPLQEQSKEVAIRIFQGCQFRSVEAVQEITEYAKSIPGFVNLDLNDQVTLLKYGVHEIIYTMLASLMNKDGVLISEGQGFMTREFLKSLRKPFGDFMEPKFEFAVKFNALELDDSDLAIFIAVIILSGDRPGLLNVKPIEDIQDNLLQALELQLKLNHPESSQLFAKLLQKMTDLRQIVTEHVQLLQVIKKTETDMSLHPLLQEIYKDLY
Method in brief: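 His-tagged PPARγ (or controls) was preincubated with compound for 20 minutes at room temperature, then 5 nM anti-His terbium antibody and 200 nM FITC-labeled SMRT-ID2 corepressor peptide (final) were added for a further hour. TR-FRET signal was normalized to percent response using 500 nM T0070907 and DMSO controls.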

[2] = system: UM-UC-9 engineered cells; assay: Cell proliferation / short-term viability assay, CellTiter-Glo 144 h; assay type: cell-based, human; conditions: read-out: CTGlo 144 h UMUC9.5, G150
Method in brief: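 UM-UC-9 engineered assay-ready cells seeded at 500 cells/well in high-glucose DMEM/10% FBS, treated from dose-response plates, grown at 37° C, 5% CO2. CellTiter-Glo 2.0 luminescence read on day 7, with a day-0 pretreatment plate as T0 reference and DMSO wells as negative control.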

Row | Structure (SMILES) | AC50 [1] | IC50 [2]
1 | COc1cc(-c2cc(C(=O)N3CCC(C(=O)NCC4CCc5[nH]nc(C)c5C4)CC34CC4)n[nH]2)c(F)cn1 (mixture of isomers) [Example 382, (S)-4-(5-(5-fluoro-2-methoxypyridin-4-yl)-1H-pyrazole-3-carbonyl)-N—(((S)-3-methyl-4,5,6,7-tetrahydro-1H-indazol-5-yl)methyl)-4-azaspiro[2.5]octane-7-carboxamide and (S)-4-(5-(5-fluoro-2-methoxypyridin-4-yl)-1H-pyrazole-3-carbonyl)-N—(((R)-3-methyl-4,5,6,7-tetrahydro-1H-indazol-5-yl)methyl)-4-azaspiro[2.5]octane-7-carboxamide] | 4 nM | 10 nM
2 | COc1cc(-c2cc(C(=O)N3CCC(C(=O)NC4CCOc5cc(F)cnc54)CC34CC4)n[nH]2)c(F)cn1 (mixture of isomers) [Example 383, (S)-4-(5-(5-fluoro-2-methoxypyridin-4-yl)-1H-pyrazole-3-carbonyl)-N—((R)-7-fluoro-3,4-dihydro-2H-pyrano[3,2-b]pyridin-4-yl)-4-azaspiro[2.5]octane-7-carboxamide and (S)-4-(5-(5-fluoro-2-methoxypyridin-4-yl)-1H-pyrazole-3-carbonyl)-N—((S)-7-fluoro-3,4-dihydro-2H-pyrano[3,2-b]pyridin-4-yl)-4-azaspiro[2.5]octane-7-carboxamide] | 33.1 nM | 43.1 nM
3 | COc1cc(-c2cc(C(=O)N3CCC(C(=O)NC4CCN(c5cccnc5)C4)CC34CC4)n[nH]2)c(F)cn1 (mixture of isomers) [Example 390, (S)-4-(5-(5-fluoro-2-methoxypyridin-4-yl)-1H-pyrazole-3-carbonyl)-N—((R)-1-(pyridin-3-yl)pyrrolidin-3-yl)-4-azaspiro[2.5]octane-7-carboxamide and (S)-4-(5-(5-fluoro-2-methoxypyridin-4-yl)-1H-pyrazole-3-carbonyl)-N—((S)-1-(pyridin-3-yl)pyrrolidin-3-yl)-4-azaspiro[2.5]octane-7-carboxamide] | 4.2 nM | 7.1 nM
4 | COc1cc(-c2cc(C(=O)N3CCC(C(=O)NC4CCN(C5COC5)C4)CC34CC4)n[nH]2)c(F)cn1 (mixture of isomers) [Example 396, (S)-4-(5-(5-fluoro-2-methoxypyridin-4-yl)-1H-pyrazole-3-carbonyl)-N—((R)-1-(oxetan-3-yl)pyrrolidin-3-yl)-4-azaspiro[2.5]octane-7-carboxamide and (S)-4-(5-(5-fluoro-2-methoxypyridin-4-yl)-1H-pyrazole-3-carbonyl)-N—((S)-1-(oxetan-3-yl)pyrrolidin-3-yl)-4-azaspiro[2.5]octane-7-carboxamide] | 97.7 nM | 293 nM
5 | COc1cc(-c2cc(C(=O)N3CCC(C(=O)NC(C)C45CCC(O)(CC4)CC5)CC34CC4)n[nH]2)c(F)cn1 (mixture of isomers) [Example 411, (S)-4-(5-(5-fluoro-2-methoxypyridin-4-yl)-1H-pyrazole-3-carbonyl)-N—((R)-1-(4-hydroxybicyclo[2.2.2]octan-1-yl)ethyl)-4-azaspiro[2.5]octane-7-carboxamide and (S)-4-(5-(5-fluoro-2-methoxypyridin-4-yl)-1H-pyrazole-3-carbonyl)-N—((S)-1-(4-hydroxybicyclo[2.2.2]octan-1-yl)ethyl)-4-azaspiro[2.5]octane-7-carboxamide] | 37.2 nM | 60.1 nM
6 | COc1cc(-c2cc(C(=O)N3CCC(C(=O)NC(C)c4cn5c(n4)COCC5)CC34CC4)n[nH]2)c(F)cn1 (mixture of isomers) [Example 415, (S)—N—((S)-1-(5,6-dihydro-8-imidazo[2,1-c][1,4]oxazin-2-yl)ethyl)-4-(5-(5-fluoro-2-methoxypyridin-4-yl)-1H-pyrazole-3-carbonyl)-4-azaspiro[2.5]octane-7-carboxamide and (S)—N—((R)-1-(5,6-dihydro-8H-imidazo[2,1-c][1,4]oxazin-2-yl)ethyl)-4-(5-(5-fluoro-2-methoxypyridin-4-yl)-1H-pyrazole-3-carbonyl)-4-azaspiro[2.5]octane-7-carboxamide] | 163 nM | 524 nM
7 | COc1cc(-c2cc(C(=O)N3CCC(C(=O)NC4CCC(C)(C)N(C)C4)CC34CC4)n[nH]2)c(F)cn1 (mixture of isomers) [Example 424, (S)-4-(5-(5-fluoro-2-methoxypyridin-4-yl)-1H-pyrazole-3-carbonyl)-N—((R)-1,6,6-trimethylpiperidin-3-yl)-4-azaspiro[2.5]octane-7-carboxamide and (S)-4-(5-(5-fluoro-2-methoxypyridin-4-yl)-1H-pyrazole-3-carbonyl)-N—((S)-1,6,6-trimethylpiperidin-3-yl)-4-azaspiro[2.5]octane-7-carboxamide] | 942 nM | 1950 nM
8 | COc1cc(-c2cc(C(=O)N3CCC(C(=O)NC4CCN(CCF)C(C)(C)C4)CC34CC4)n[nH]2)c(F)cn1 (mixture of isomers) [Example 425, (S)-4-(5-(5-fluoro-2-methoxypyridin-4-yl)-1H-pyrazole-3-carbonyl)-N—((S)-1-(2-fluoroethyl)-2,2-dimethylpiperidin-4-yl)-4-azaspiro[2.5]octane-7-carboxamide and (S)-4-(5-(5-fluoro-2-methoxypyridin-4-yl)-1H-pyrazole-3-carbonyl)-N—((R)-1-(2-fluoroethyl)-2,2-dimethylpiperidin-4-yl)-4-azaspiro[2.5]octane-7-carboxamide] | 901 nM | > 10000 nM
9 | COc1cc(-c2cc(C(=O)N3CCC(C(=O)NC4CN(C5CCOC5)C4)CC34CC4)n[nH]2)c(F)cn1 (mixture of isomers) [Example 433, (S)-4-(5-(5-fluoro-2-methoxypyridin-4-yl)-1H-pyrazole-3-carbonyl)-N-(1-((S)-tetrahydrofuran-3-yl)azetidin-3-yl)-4-azaspiro[2.5]octane-7-carboxamide and (S)-4-(5-(5-fluoro-2-methoxypyridin-4-yl)-1H-pyrazole-3-carbonyl)-N-(1-((R)-tetrahydrofuran-3-yl)azetidin-3-yl)-4-azaspiro[2.5]octane-7-carboxamide] | 89.6 nM | 695 nM
10 | COc1cc(-c2cc(C(=O)N3CCC(C(=O)Nc4cnn5ccc(C(C)O)nc45)CC34CC4)n[nH]2)c(F)cn1 (mixture of isomers) [Example 445, (S)-4-(5-(5-fluoro-2-methoxypyridin-4-yl)-1H-pyrazole-3-carbonyl)-N-(5-((R)-1-hydroxyethyl)pyrazolo[1,5-a]pyrimidin-3-yl)-4-azaspiro[2.5]octane-7-carboxamide and (S)-4-(5-(5-fluoro-2-methoxypyridin-4-yl)-1H-pyrazole-3-carbonyl)-N-(5-((S)-1-hydroxyethyl)pyrazolo[1,5-a]pyrimidin-3-yl)-4-azaspiro[2.5]octane-7-carboxamide] | 1.2 nM | 22.4 nM
11 | COc1cc(-c2cc(C(=O)N3CCC(C(=O)NC4CCN(c5ccnc6[nH]ncc56)C4)CC34CC4)n[nH]2)c(F)cn1 (mixture of isomers) [Example 450, (S)—N—((S)-1-(1H-pyrazolo[3,4-b]pyridin-4-yl)pyrrolidin-3-yl)-4-(5-(5-fluoro-2-methoxypyridin-4-yl)-1H-pyrazole-3-carbonyl)-4-azaspiro[2.5]octane-7-carboxamide and (S)—N—((R)-1-(1H-pyrazolo[3,4-b]pyridin-4-yl)pyrrolidin-3-yl)-4-(5-(5-fluoro-2-methoxypyridin-4-yl)-1H-pyrazole-3-carbonyl)-4-azaspiro[2.5]octane-7-carboxamide] | 1.5 nM | 114 nM
12 | COc1cc(-c2cc(C(=O)N3CCC(C(=O)NC4CCN(c5cnnc(C)c5)C4)CC34CC4)n[nH]2)c(F)cn1 (mixture of isomers) [Example 452, (S)-4-(5-(5-fluoro-2-methoxypyridin-4-yl)-1H-pyrazole-3-carbonyl)-N—((S)-1-(6-methylpyridazin-4-yl)pyrrolidin-3-yl)-4-azaspiro[2.5]octane-7-carboxamide and ('S)-4-(5-(5-fluoro-2-methoxypyridin-4-yl)-1H-pyrazole-3-carbonyl)-N—((R)-1-(6-methylpyridazin-4-yl)pyrrolidin-3-yl)-4-azaspiro[2.5]octane-7-carboxamide] | 33.4 nM | 2390 nM
13 | COc1cc(-c2cc(C(=O)N3CCC(C(=O)NC4CCN(c5cnc(C)nc5)C4)CC34CC4)n[nH]2)c(F)cn1 (mixture of isomers) [Example 453, (S)-4-(5-(5-fluoro-2-methoxypyridin-4-yl)-1H-pyrazole-3-carbonyl)-N—((S)-1-(2-methylpyrimidin-5-yl)pyrrolidin-3-yl)-4-azaspiro[2.5]octane-7-carboxamide and (S)-4-(5-(5-fluoro-2-methoxypyridin-4-yl)-1H-pyrazole-3-carbonyl)-N—((R)-1-(2-methylpyrimidin-5-yl)pyrrolidin-3-yl)-4-azaspiro[2.5]octane-7-carboxamide] | 25.6 nM | 44.2 nM
